Assay results: US20240366701A1, “EXTRACT OF MYROTHAMNUS SP FOR PROMOTING HAIR GROWTH” (Lubrizol Advanced Materials, Inc., priority 2021, published 2024)

Experiments:
[1] = test system: Human Epidermal Keratinocyte cells (HEK); assay: In vitro proliferation assay on keratinocyte cells (PrestoBlue); assay type: cell-based; conditions: test concentration 10 (%, v/v), 24 h, negative control = 100.00
Method: Human Epidermal Keratinocyte cells (HEK) are grown to a density of 4500 cells/cm^2 in keratinocyte growth medium at 37° C. in 5% CO2 humidified air during 7 days. After this time, they are split and then seeded for treatment.
HEK are seeded at a density of 70000 cells/mL of culture medium in 96-well Cell Carrier black plates (PerkinElmer) in culture medium. After 24 hours incubation at 37° C. in 5% CO2 humidified air, medium is removed and fresh culture medium with dilutions of the test products. Cells treated with medium alone are used as negative control. Epidermal Growth Factor (EGF) is used as a positive control. After 24 hours incubation, live and dead cells are quantified with PrestoBlue® Cell Viability Reagent.
HEK quantification is quantified by fluorescence by using cell permeable resazurin-based solution PrestoBlue® from Thermo Fisher Scientific.
Stock solution of Example 1 and 2 are assayed in 3 independent experiments including 4 replicates in each experiment.

[2] = test system: Human Umbilical Vein Endothelial cells (HUVEC); assay: In vitro new blood vessel (tube-like structure) formation; assay type: cell-based; conditions: 5 ng/ml, 4 h, respect basal condition
Text: Hair follicles get nourishment from blood flow in the skin having hair. Optimal irrigation of hair follicle increases its nourishment and stimulates the generation of new hair and improves hair growth and strength. Compounds able to generate new blood vessels in the hair follicle are good candidates for the cosmetic treatment of eyelash growth and strength. In vitro assessment of new blood vessels formation involves measurement of the ability of endothelial cells to form three-dimensional tube-like structures. Human Umbilical Vein Endothelial cells (HUVEC) mediate specific connections with extracellular matrix components generating differential forces which induces morphological changes and migration of HUVEC, leading to the formation of tube-like structures. The aim of this study is to evaluate the efficacy of the compound of the invention to generate new blood vessel tubes by means of measuring the ability of endothelial cells to form three-dimensional tube-like structures.
A 96 well plate is pre-coated with cold Extracellular Matrix Solution (Angiogenesis Assay kit, PromoKine) and incubated for 1 hour at 37° C. After the incubation, HUVEC cells are seeded in pre-coated wells at a density of 15,000 cells/well. Immediately, cells are treated with the stock solution of Example 2 dissolved in medium achieving a final well concentration of 0.5% (v/v). Vascular endothelial growth factor (VEGF) is used as positive control at a final well concentration of 5 ng/ml and cells treated with medium alone are used as a basal control. Cells are treated for 4 hours at 37° C. in 5% CO2 humidified air and then are stained with Staining Dye (Angiogenesis Assay kit, PromoKine) according to the manufacturer's protocol. Briefly, cells are washed and then Staining Dye solution was added. After a 30 minutes incubation at 37° C. in 5% CO2 humidified air, fluorescence images are captured using Operetta® confocal microscope (PerkinElmer, Inc) and new tubes formation is evaluated by ImageJ software.
New blood vessel tube formation is evaluated by the measurement of different parameters in each image acquired. […] Afterwards, the software quantifies more complex structures: • Segment length: number of pixels of each segment detected. • Master segment number: number of segments delimited by junctions without branch connection. • Master junction number: number of junctions which link at least three master segments. • Number of meshes: number of elements delimited by segments or master segments.
To consider an increase in new blood vessel tube formation, more than one of the parameters measured needs to be increased.
Results herein are the different measured parameters expressed as percentage normalized by basal condition.

Substance	Cell growth MEAN normalized with respect to the negative control [1]	% of number of master junctions (Mean ± SEM) [2]	% of number of master segments (Mean ± SEM) [2]	% of number of meshes (Mean ± SEM) [2]	% of total segment length (Mean ± SEM) [2]
Positive control (EGF): Epidermal Growth Factor used as a positive control	94.41				
VEGF		183.1 ± 31.1%	196.5 ± 36.5%	288.6 ± 75.9%	160.1 ± 21.9%
